Species on record: Rattus norvegicus
Test: DrugMatrix - Regimen: Daily Repeat
Type: toxicity, organism-based, Sprague-Dawley
Parameters: regimen Daily Repeat, gender Male, age 6-8 weeks
Conditions: in vivo, po, route oral GAVAGE, vehicle .5 % CMC; for ABSOLUTE BASOPHIL / ABSOLUTE EOSINOPHIL / ABSOLUTE LYMPHOCYTE / ABSOLUTE MONOCYTE / ABSOLUTE SEGMENTED NEUTROPHIL / BASOPHIL / EOSINOPHIL / ERYTHROCYTE COUNT / HEMATOCRIT / HEMOGLOBIN / LEUKOCYTE COUNT / LYMPHOCYTE / MEAN CORPUSCULAR HEMOGLOBIN / MEAN CORPUSCULAR HEMOGLOBIN CONCENTRATION / MEAN CORPUSCULAR VOLUME / MONOCYTE / NEUTROPHIL / NUCLEATED RED BLOOD CELLS / PLATELET COUNT: tissue Blood; for ALANINE AMINOTRANSFERASE / ALBUMIN / ALKALINE PHOSPHATASE / ASPARTATE AMINOTRANSFERASE / BLOOD UREA NITROGEN / CARBON DIOXIDE / CHLORIDE / CHOLESTEROL / CREATINE PHOSPHOKINASE / CREATININE / GLUCOSE / LACTATE DEHYDROGENASE / LIPASE / PHOSPHORUS / POTASSIUM / SODIUM / TOTAL BILIRUBIN / TOTAL PROTEIN / URIC ACID: tissue Plasma
[1] = 30 mg/kg, 72 h, dose level Low, time 3 day
[2] = 30 mg/kg, 120 h, dose level Low, time 5 day
[3] = 570 mg/kg, 72 h, dose level High, time 3 day
[4] = 570 mg/kg, 120 h, dose level High, time 5 day

With `O=C(O)COc1ccc(C(=O)c2cccs2)c(Cl)c1Cl` the “ABSOLUTE BASOPHIL” value [1] was 0 CELLS/uL, the “ABSOLUTE EOSINOPHIL” value [1] was 0 CELLS/uL and the “ABSOLUTE LYMPHOCYTE” value [1] was 7024 CELLS/uL. The “ABSOLUTE MONOCYTE” value [1] was 269 CELLS/uL, the “ABSOLUTE SEGMENTED NEUTROPHIL” value [1] was 840.33 CELLS/uL and the BASOPHIL [1] was 0%. The EOSINOPHIL [1] was 0%, the “ERYTHROCYTE COUNT” value [1] was 5.29 x10E6/uL and the HEMATOCRIT [1] was 33.2%. For the same compound, the HEMOGLOBIN [1] was 12.83 G/DL, the “LEUKOCYTE COUNT” value [1] was 8.13 x10E3/uL and the LYMPHOCYTE [1] was 86.33%. For the same compound, the “MEAN CORPUSCULAR HEMOGLOBIN” value [1] was 24.27 pg, the “MEAN CORPUSCULAR HEMOGLOBIN CONCENTRATION” value [1] was 38.67 G/DL and the “MEAN CORPUSCULAR VOLUME” value [1] was 62.8 fL. The MONOCYTE [1] was 3%, the NEUTROPHIL [1] was 10.67% and the “NUCLEATED RED BLOOD CELLS” value [1] was 0.67 /100WBC. For the same compound, the “PLATELET COUNT” value [1] was 1021.33 x10E3/uL, the “ALANINE AMINOTRANSFERASE” value [1] was 60.33 u/L and the ALBUMIN [1] was 4.17 G/DL. The “ALKALINE PHOSPHATASE” value [1] was 394.67 u/L, the “ASPARTATE AMINOTRANSFERASE” value [1] was 94.33 u/L and the “BLOOD UREA NITROGEN” value [1] was 14.67 mg/dL. For the same compound, the “CARBON DIOXIDE” value [1] was 33.67 mmol/L, the CHLORIDE [1] was 99.67 MEQ/L and the CHOLESTEROL [1] was 74 mg/dL. The “CREATINE PHOSPHOKINASE” value [1] was 524.67 u/L, the CREATININE [1] was 0.26 mg/dL and the GLUCOSE [1] was 144.67 mg/dL. The “LACTATE DEHYDROGENASE” value [1] was 159 u/L, the LIPASE [1] was 9.33 u/L and the PHOSPHORUS [1] was 12.93 mg/dL. The POTASSIUM [1] was 6.21 MEQ/L, the SODIUM [1] was 144.4 MEQ/L and the “TOTAL BILIRUBIN” value [1] was 0.17 mg/dL. For the same compound, the “TOTAL PROTEIN” value [1] was 6.2 G/DL, the “URIC ACID” value [1] was 0.5 mg/dL and the “ABSOLUTE BASOPHIL” value [2] was 0 CELLS/uL. For the same compound, the “ABSOLUTE EOSINOPHIL” value [2] was 52.67 CELLS/uL, the “ABSOLUTE LYMPHOCYTE” value [2] was 10475.33 CELLS/uL and the “ABSOLUTE MONOCYTE” value [2] was 92 CELLS/uL. The “ABSOLUTE SEGMENTED NEUTROPHIL” value [2] was 1380 CELLS/uL, the BASOPHIL [2] was 0% and the EOSINOPHIL [2] was 0.33%. The “ERYTHROCYTE COUNT” value [2] was 5.51 x10E6/uL, the HEMATOCRIT [2] was 35.03% and the HEMOGLOBIN [2] was 13.53 G/DL. For the same compound, the “LEUKOCYTE COUNT” value [2] was 12 x10E3/uL, the LYMPHOCYTE [2] was 87.67% and the “MEAN CORPUSCULAR HEMOGLOBIN” value [2] was 24.53 pg. For the same compound, the “MEAN CORPUSCULAR HEMOGLOBIN CONCENTRATION” value [2] was 38.63 G/DL, the “MEAN CORPUSCULAR VOLUME” value [2] was 63.57 fL and the MONOCYTE [2] was 0.67%. The NEUTROPHIL [2] was 11.33%, the “NUCLEATED RED BLOOD CELLS” value [2] was 0 /100WBC and the “PLATELET COUNT” value [2] was 1276 x10E3/uL. For the same compound, the “ALANINE AMINOTRANSFERASE” value [2] was 51 u/L, the ALBUMIN [2] was 4.23 G/DL and the “ALKALINE PHOSPHATASE” value [2] was 420.67 u/L. The “ASPARTATE AMINOTRANSFERASE” value [2] was 78.33 u/L, the “BLOOD UREA NITROGEN” value [2] was 13 mg/dL and the “CARBON DIOXIDE” value [2] was 35.67 mmol/L. The CHLORIDE [2] was 97.33 MEQ/L, the CHOLESTEROL [2] was 80 mg/dL and the “CREATINE PHOSPHOKINASE” value [2] was 446.67 u/L. The CREATININE [2] was 0.27 mg/dL, the GLUCOSE [2] was 136 mg/dL and the “LACTATE DEHYDROGENASE” value [2] was 169.67 u/L. The LIPASE [2] was 8.33 u/L, the PHOSPHORUS [2] was 12.7 mg/dL and the POTASSIUM [2] was 6.46 MEQ/L. For the same compound, the SODIUM [2] was 142.87 MEQ/L, the “TOTAL BILIRUBIN” value [2] was 0.2 mg/dL and the “URIC ACID” value [2] was 0.8 mg/dL. The “ABSOLUTE BASOPHIL” value [3] was 0 CELLS/uL, the “ABSOLUTE EOSINOPHIL” value [3] was 0 CELLS/uL and the “ABSOLUTE LYMPHOCYTE” value [3] was 14484.67 CELLS/uL. The “ABSOLUTE MONOCYTE” value [3] was 271.67 CELLS/uL, the “ABSOLUTE SEGMENTED NEUTROPHIL” value [3] was 1143.67 CELLS/uL and the BASOPHIL [3] was 0%. The EOSINOPHIL [3] was 0%, the “ERYTHROCYTE COUNT” value [3] was 5.25 x10E6/uL and the HEMATOCRIT [3] was 32.4%. For the same compound, the HEMOGLOBIN [3] was 12.33 G/DL, the “LEUKOCYTE COUNT” value [3] was 15.9 x10E3/uL and the LYMPHOCYTE [3] was 91.33%. For the same compound, the “MEAN CORPUSCULAR HEMOGLOBIN” value [3] was 23.47 pg, the “MEAN CORPUSCULAR HEMOGLOBIN CONCENTRATION” value [3] was 38.03 G/DL and the “MEAN CORPUSCULAR VOLUME” value [3] was 61.6 fL. For the same compound, the MONOCYTE [3] was 1.67%, the NEUTROPHIL [3] was 7% and the “NUCLEATED RED BLOOD CELLS” value [3] was 0 /100WBC. For the same compound, the “PLATELET COUNT” value [3] was 1320.33 x10E3/uL, the “ALANINE AMINOTRANSFERASE” value [3] was 61.67 u/L and the ALBUMIN [3] was 4.03 G/DL. For the same compound, the “ALKALINE PHOSPHATASE” value [3] was 478 u/L, the “ASPARTATE AMINOTRANSFERASE” value [3] was 93 u/L and the “BLOOD UREA NITROGEN” value [3] was 14.67 mg/dL. For the same compound, the “CARBON DIOXIDE” value [3] was 35.67 mmol/L, the CHLORIDE [3] was 97 MEQ/L and the CHOLESTEROL [3] was 89.67 mg/dL. The “CREATINE PHOSPHOKINASE” value [3] was 605.33 u/L, the CREATININE [3] was 0.23 mg/dL and the GLUCOSE [3] was 141.33 mg/dL. The “LACTATE DEHYDROGENASE” value [3] was 128 u/L, the LIPASE [3] was 9 u/L and the PHOSPHORUS [3] was 10.17 mg/dL. For the same compound, the POTASSIUM [3] was 5.26 MEQ/L, the SODIUM [3] was 142.77 MEQ/L and the “TOTAL BILIRUBIN” value [3] was 0.2 mg/dL. For the same compound, the “TOTAL PROTEIN” value [3] was 6.27 G/DL, the “URIC ACID” value [3] was 0.47 mg/dL and the “ABSOLUTE BASOPHIL” value [4] was 0 CELLS/uL. The “ABSOLUTE EOSINOPHIL” value [4] was 0 CELLS/uL, the “ABSOLUTE LYMPHOCYTE” value [4] was 19963.33 CELLS/uL and the “ABSOLUTE MONOCYTE” value [4] was 319.33 CELLS/uL. The “ABSOLUTE SEGMENTED NEUTROPHIL” value [4] was 2417.33 CELLS/uL, the BASOPHIL [4] was 0% and the EOSINOPHIL [4] was 0%. The “ERYTHROCYTE COUNT” value [4] was 5.25 x10E6/uL, the HEMATOCRIT [4] was 32.67% and the HEMOGLOBIN [4] was 12.47 G/DL. For the same compound, the “LEUKOCYTE COUNT” value [4] was 22.7 x10E3/uL, the LYMPHOCYTE [4] was 88.33% and the “MEAN CORPUSCULAR HEMOGLOBIN” value [4] was 23.73 pg. For the same compound, the “MEAN CORPUSCULAR HEMOGLOBIN CONCENTRATION” value [4] was 38.17 G/DL, the “MEAN CORPUSCULAR VOLUME” value [4] was 62.33 fL and the MONOCYTE [4] was 1.33%. For the same compound, the NEUTROPHIL [4] was 10.33%, the “NUCLEATED RED BLOOD CELLS” value [4] was 0 /100WBC and the “PLATELET COUNT” value [4] was 1428 x10E3/uL. The “ALANINE AMINOTRANSFERASE” value [4] was 48 u/L, the ALBUMIN [4] was 4.13 G/DL and the “ALKALINE PHOSPHATASE” value [4] was 359.33 u/L. The “ASPARTATE AMINOTRANSFERASE” value [4] was 74 u/L, the “BLOOD UREA NITROGEN” value [4] was 15.67 mg/dL and the “CARBON DIOXIDE” value [4] was 34.33 mmol/L. The CHLORIDE [4] was 100 MEQ/L, the CHOLESTEROL [4] was 70.33 mg/dL and the “CREATINE PHOSPHOKINASE” value [4] was 268.67 u/L. The CREATININE [4] was 0.29 mg/dL, the GLUCOSE [4] was 144 mg/dL and the “LACTATE DEHYDROGENASE” value [4] was 153.33 u/L. The LIPASE [4] was 6.67 u/L, the PHOSPHORUS [4] was 11 mg/dL and the POTASSIUM [4] was 6.13 MEQ/L. The SODIUM [4] was 144.77 MEQ/L, the “TOTAL BILIRUBIN” value [4] was 0.2 mg/dL and the “TOTAL PROTEIN” value [4] was 6.1 G/DL. For the same compound, the “URIC ACID” value [4] was 1.3 mg/dL.
